{
  "source": "patent US20230183335A1",
  "about": "“GLP1R AGONIST NMDAR ANTAGONIST CONJUGATES” (KØBENHAVNS UNIVERSITET, priority 2020, published 2023)",
  "type_in_all_cases": "in vivo",
  "key": {"[1]": {"system": "DIO mice", "test": "Body weight in diet-induced obesity (DIO) mice", "details": "for reduction in body weight %: FIG. 14, DIO mice treated for 5 days, N=7; for body weight percentage (BW %) reduction: FIG. 4, 40 nmol/kg or equimolar, DIO mice treated for 8 days; for reduction in body weight (BW %): FIG. 8, after 10 days of treatment", "procedure": "(§1) C57BL6J male mice, in the following referred to as diet-induced obesity (DIO) mice, were maintained on a high-fat diet (58% energy from fat) and had, for each study, an average body weight of more than 45 gram prior to study start. Mice were either housed individually or double-housed. The mice were maintained on a 12 h dark-light cycle at 21-23° C. Compounds were administered subcutaneously once daily (between 2 pm-5 pm) and food intake (FI) and body weight (BW) measured at the corresponding time. For body composition, measures of fat and lean mass were performed prior to the study (1-3 days prior to study start) and on the final day of the study using an MRI scanner (EchoMRI). The group of mice injected with a vehicle (saline) served as the control group."}, "[2]": {"system": "DIO mice", "test": "Food intake in diet-induced obesity (DIO) mice", "procedure": "as §1"}, "[3]": {"system": "DIO mice", "test": "Body composition (fat and lean mass, MRI) in DIO mice", "details": "for change in fat body mass (Delta change) / change in lean body mass (Delta change): FIG. 7, 40 nmol/kg or equimolar, DIO mice treated for 8 days", "procedure": "as §1"}, "[4]": {"details": "FIG. 5, equimolar doses, DIO mice treated for 8 days, compared to vehicle and memantine"}, "[5]": {"details": "FIG. 6, 40 nmol/kg or equimolar, DIO mice treated for 8 days"}, "[6]": {"details": "100 nmol/kg or equimolar, DIO mice"}, "[7]": {"details": "FIG. 9, 100 nmol/kg or equimolar, DIO mice treated for 10 days"}, "[8]": {"details": "FIG. 11, 100 nmol/kg, DIO mice treated for 10 days"}},
  "note": "Non-standard residues stand in square brackets, D forms with d. Groups on a side chain read outwards from the residue. No end group written: not given here. disulfide linker = not defined here; Pen = CC(C)(S)[C@H](N)C(=O)O",
  "data": [
    {"molecule": "GLP-1 Pen40: peptide of SEQ ID NO:1 with the Pen40 (L-penicillamine) modification (HAEGTFTSDVSSYLEEQAAKEFIAWLVKGGPSSGAPPPSC; not fully specified (residue 40, C-terminus); ends and bridges not checked; listed as Homo sapiens)", "values": [
      {"measurement": "reduction in body weight %", "setting": "[1]; 100 nmol/kg or equimolar", "value": "approximately 6%"}
    ]},
    {"molecule": "GLP-1 Cys40/Memantine: conjugate of peptide of SEQ ID NO:1 and memantine appended via disulfide linker, unmodified cysteine (cysteine linked) (HAEGTFTSDVSSYLEEQAAKEFIAWLVKGGPSSGAPPPSC; not fully specified (residue 40, C-terminus); ends and bridges not checked; listed as Homo sapiens)", "values": [
      {"measurement": "body weight percentage (BW %) reduction", "setting": "[1]", "value": "approximately 7%"},
      {"measurement": "cumulative food intake (FI Cumulative)", "setting": "[2]; [4]", "value": "lowered cumulative food intake"},
      {"measurement": "daily food intake (FI daily)", "setting": "[2]; [5]", "value": "lowered daily food intake"},
      {"measurement": "change in fat body mass (Delta change)", "setting": "[3]", "value": "approximately 4 g"},
      {"measurement": "change in lean body mass (Delta change)", "setting": "[3]", "value": "nearly no change"}
    ]},
    {"molecule": "GLP-1 Cys40: the peptide of SEQ ID NO:1, C-terminal unmodified cysteine (HAEGTFTSDVSSYLEEQAAKEFIAWLVKGGPSSGAPPPSC; not fully specified (C-terminus); ends and bridges not checked; listed as Homo sapiens)", "values": [
      {"measurement": "body weight percentage (BW %) reduction", "setting": "[1]", "value": "lowered BW %"},
      {"measurement": "reduction in body weight (BW %)", "setting": "[1]; [6]", "value": "approximately 8%"},
      {"measurement": "body weight reduction", "setting": "[1]; FIG. 12, 100 nmol/kg or equimolar, DIO mice, after 5 days of treatment", "value": "approximately 4%"},
      {"measurement": "reduction in body weight %", "setting": "[1]; 100 nmol/kg or equimolar", "value": "approximately 6%"},
      {"measurement": "cumulative food intake (FI Cumulative)", "setting": "[2]; [4]", "value": "lowered cumulative food intake"},
      {"measurement": "daily food intake (FI daily)", "setting": "[2]; [5]", "value": "lowered daily food intake"},
      {"measurement": "daily food intake (FI daily)", "setting": "[2]; FIG. 6, 40 nmol/kg or equimolar, DIO mice treated for 8 days, listed as GLP-1", "value": "only a slight reduction in food intake"},
      {"measurement": "cumulative food intake (FI Cumulative)", "setting": "[2]; [7]", "value": "lowered cumulative food intake"},
      {"measurement": "change in fat body mass (Delta change)", "setting": "[3]", "value": "reduction in fat body mass"},
      {"measurement": "change in lean body mass (Delta change)", "setting": "[3]", "value": "nearly no change"}
    ]},
    {"molecule": "CC12CC3CC(C)(C1)CC(N)(C3)C2", "note": "[memantine, reference compound]", "values": [
      {"measurement": "change in fat body mass (Delta change)", "setting": "[3]", "value": "reduction in fat body mass"},
      {"measurement": "change in lean body mass (Delta change)", "setting": "[3]", "value": "nearly no change"}
    ]},
    {"molecule": "C[C@]12N[C@H](Cc3ccccc31)c1ccccc12", "note": "[MK801, reference compound]", "values": [
      {"measurement": "reduction in body weight (BW %)", "setting": "[1]; [6]", "value": "nearly no percentage change"}
    ]},
    {"molecule": "GIP/GLP-1/MK801 conjugate: co-agonist GIP/GLP-1 Pen40/MK801 conjugate, peptide according to SEQ ID NO:9 (YGEGTFTSDYSIYLDKQAAKEFVNWLLAGGPSSGAPPPS[Pen]([disulfide linker-MK801]); not fully specified (C-terminus); printed as YX1EGT FTSDY SIYLD KQAAX1 EFVNW LLAGG PSSGA PPPSX2; reading uncertain; also: MK801 attached via disulfide linker; listed as Homo sapiens)", "values": [
      {"measurement": "overall reduction in body weight compared to the control group", "setting": "[1]; FIG. 33, 50 nmol/kg, DIO mice treated for 7 days", "value": "approximately 25%"},
      {"measurement": "cumulative food intake (Cumulative FI)", "setting": "[2]; FIG. 34, 50 nmol/kg, DIO mice treated for 7 days, control group 15 g", "value": "approximately 3 g"}
    ]},
    {"molecule": "GLP-1 Cys40/MK801: peptide of SEQ ID NO:1 conjugated with chemical linker derivatized MK801, cysteine linked (HAEGTFTSDVSSYLEEQAAKEFIAWLVKGGPSSGAPPPSC; not fully specified (residue 40, C-terminus); ends and bridges not checked; listed as Homo sapiens)", "values": [
      {"measurement": "reduction in body weight (BW %)", "setting": "[1]; [6]", "value": "~12", "unit": "%"},
      {"measurement": "cumulative food intake (FI Cumulative)", "setting": "[2]; [7]", "value": "approximately 13 g/day"},
      {"measurement": "cumulative food intake less than the vehicle-treated mice", "setting": "[2]; FIG. 9, 100 nmol/kg, DIO mice treated for 10 days", "value": "approximately 10 g/day"},
      {"measurement": "daily food intake (FI daily)", "setting": "[2]; FIG. 10, 100 nmol/kg, DIO mice treated for 10 days, compared to vehicle", "value": "reduction in food intake was observed all 10 days"},
      {"measurement": "change in fat mass (reduction)", "setting": "[3]; [8]", "value": "~5", "unit": "g"},
      {"measurement": "change in lean body mass", "setting": "[3]; [8]", "value": "reduction in both fat and lean body mass"}
    ]}
  ]
}
